pEC50: −log10 of the molar value.
Assays:
[1] = tested on: symmetric di-methyl arginine in Z-138 cells; test: Z-138 Methylation Assay (In Cell Western for symmetric di-methyl arginine and DNA content); format: cell-based; settings: read-out: ICW EC50
From the text: [formula] [formula] Where top and bottom are the normally allowed to float, but may be fixed at 100 or 0 respectively in a 3-parameter fit. The Hill Coefficient normally allowed to float but may also be fixed at 1 in a 3-parameter fit. Y is the % inhibition and X is the compound concentration. Z-138 Methylation Assay
Z-138 suspension cells were purchased from ATCC (American Type Culture Collection, Manassas, Va.). RPMI/Glutamax medium, penicillin-streptomycin, heat inactivated fetal bovine serum, and D-PBS were purchased from Life Technologies, Grand Island, N.Y., USA. Odyssey blocking buffer, 800CW goat anti-rabbit IgG (H+L) antibody, and Licor Odyssey infrared scanner were purchased from Licor Biosciences, Lincoln, Nebr., USA. Symmetric di-methyl arginine antibody was purchased from EMD Millipore, Billerica, Mass., USA. 16% Paraformaldehyde was purchased from Electron Microscopy Sciences, Hatfield, Pa., USA. Z-138 suspension cells were maintained in growth medium (RPMI 1640 supplemented with 10% v/v heat inactivated fetal bovine serum and 100 units/mL penicillin-streptomycin) and cultured at 37° C. under 5% CO2.
Cell Treatment, in Cell Western (ICW) for Detection of Symmetric Di-Methyl Arginine and DNA Content.
Z-138 cells were seeded in assay medium at a concentration of 50,000 cells per mL to a 384-well cell culture plate with 50 μL per well. Compound (100 nL) from 384 well source plates was added directly to 384 well cell plate. Plates were incubated at 37° C., 5% CO2 for 96 hours. […]
First, the ratio for each well was determined by:
Each plate included fourteen control wells of DMSO only treatment (minimum inhibition) as well as fourteen control wells for maximum inhibition treated with 3 μM of a reference compound (Background wells). The average of the ratio values for each control type was calculated and used to determine the percent inhibition for each test well in the plate. […] Percent inhibition was determined and IC50 curves were generated using triplicate wells per concentration of compound. […]

[2] = tested on: Z-138 cell line; test: Z-138 Proliferation Assay (Cell-Titer Glo, 5 days); format: cell-based; settings: Z-138 cells
From the text: [formula] Z-138 Proliferation Assay
Z-138 suspension cells were purchased from ATCC (American Type Culture Collection, Manassas, Va.). RPMI/Glutamax medium, penicillin-streptomycin, heat inactivated fetal bovine serum were purchased from Life Technologies, Grand Island, N.Y., USA. V-bottom polypropylene 384-well plates were purchased from Greiner Bio-One, Monroe, N.C., USA. Cell culture 384-well white opaque plates were purchased from Perkin Elmer, Waltham, Mass., USA. Cell-Titer Glo® was purchased from Promega Corporation, Madison, Wis., USA. SpectraMax M5 plate reader was purchased from Molecular Devices LLC, Sunnyvale, Calif., USA. […] Cell viability was measured by quantitation of ATP present in the cell cultures, adding […] of Cell Titer Glo® reagent to the cell plates. Luminescence was read in the SpectraMax M5 microplate reader. The concentration of compound inhibiting cell viability by 50% was determined using a 4-parametric fit of the normalized dose response curves.

| Compound | pEC50 [1] | pEC50 [2] |
| --- | --- | --- |
| N-(3-(3-(3,4-dihydroisoquinolin-2(1H)-yl)-2-hydroxypropoxy)phenyl)pyrimidine-5-carboxamide [Compound 145] | 5.00 to 6.00 | < 4.70 |
| OC(COc1cccc(-c2ccc3cn[nH]c3c2)c1)CN1CCc2ccccc2C1 (stereo not shown) [Compound 58, 1-(3-(1H-indazol-6-yl)phenoxy)-3-(3,4-dihydroisoquinolin-2(1H)-yl)propan-2-ol] | 5.00 to 6.00 | 4.40 to 5.00 |

Source: patent US9777008B2, “PRMT5 inhibitors and uses thereof” (Epizyme, Inc., priority 2012, dated 2017)
